Measured values published in patent US6982348B2, “Aminoethanol derivatives” (Takeda Pharmaceutical Company Limited, priority 2001, dated 2006).

| melting point [°C] | SMILES |
| --- | --- |
| 241 to 242 | O=C(N[C@H](Cc1ccc(C(F)(F)F)cc1)[C@@H](O)c1ccc(F)cc1)c1ccc(F)c2c1CCCC2 (racemic) [Example 31, 4-fluoro-N-[(1RS,2SR)-2-(4-fluorophenyl)-2-hydroxy-1-[4-(trifluoromethyl)benzyl]ethyl]-5,6,7,8-tetrahydronaphthalene-1-carboxamide] |
| 222 to 224 | O=C(N[C@H](Cc1ccc(C(F)(F)F)cc1)[C@@H](O)c1ccc(F)cc1)c1cccc2c(F)cccc12 (racemic) [Example 32, 5-fluoro-N-[(1RS,2SR)-2-(4-fluorophenyl)-2-hydroxy-1-[4-(trifluoromethyl)benzyl]ethyl]naphthalene-1-carboxamide] |
| 219 to 221 | O=C(N[C@H](Cc1ccc(C(F)(F)F)cc1)[C@@H](O)c1ccc(F)cc1)c1cccc2c1CCCC2 (racemic) [Example 33, N-[(1RS,2SR)-2-(4-fluorophenyl)-2-hydroxy-1-[4-(trifluoromethyl)benzyl]ethyl]-5,6,7,8-tetrahydronaphthalene-1-carboxamide] |
| 222 to 223 | O=C(N[C@H](Cc1ccc(C(F)(F)F)cc1)[C@@H](O)c1ccc(F)cc1)c1ccc(Cl)c2ccccc12 (racemic) [Example 34, 4-chloro-N-[(1RS,2SR)-2-(4-fluorophenyl)-2-hydroxy-1-[4-(trifluoromethyl)benzyl]ethyl]naphthalene-1-carboxamide] |
| 214 to 216 | O=C(N[C@H](Cc1ccc(C(F)(F)F)cc1)[C@@H](O)c1ccc(F)cc1)c1cccc2ccccc12 (racemic) [Example 35, N-[(1RS,2SR)-2-(4-fluorophenyl)-2-hydroxy-1-[4-(trifluoromethyl)benzyl]ethyl]naphthalene-1-carboxamide] |
| 198 to 199 | Cc1ccc(C(=O)N[C@H](Cc2ccc(C(F)(F)F)cc2)[C@@H](O)c2ccc(F)cc2)c2ccccc12 (racemic) [Example 36, N-((1RS,2SR)-2-(4-fluorophenyl)-2-hydroxy-1-((4-(trifluoromethyl)phenyl)methyl)ethyl)-4-methyl-1-naphthalenecarboxamide] |
| 211 to 212 | O=C(N[C@H](Cc1ccc(C(F)(F)F)cc1)[C@@H](O)c1ccc(F)cc1)c1cccc2c(Cl)cccc12 (racemic) [Example 37, 5-chloro-N-[(1RS,2SR)-2-(4-fluorophenyl)-2-hydroxy-1-[4-(trifluoromethyl)benzyl]ethyl]naphthalene-1-carboxamide] |
| 207 to 209 | O=C(N[C@H](Cc1ccc(C(F)(F)F)cc1)[C@@H](O)c1ccc(F)cc1)c1ccc([N+](=O)[O-])c2c1CCCC2 (racemic) [Example 38, N-[(1RS,2SR)-2-(4-fluorophenyl)-2-hydroxy-1-[4-(trifluoromethyl)benzyl]ethyl]-4-nitro-5,6,7,8-tetrahydronaphthalene-1-carboxamide] |
| 223 to 224 | O=C(N[C@H](Cc1ccc(C(F)(F)F)cc1)[C@@H](O)c1ccc(F)cc1)c1cccc2cc(F)ccc12 (racemic) [Example 39, 6-fluoro-N-[(1RS,2SR)-2 (4-fluorophenyl)-2-hydroxy-1-[4-(trifluoromethyl)benzyl]ethyl]naphthalene-1-carboxamide] |
| 211 to 214 | O=C(N[C@H](Cc1ccc(C(F)(F)F)cc1)[C@@H](O)c1ccc(F)cc1)c1cccc2c([N+](=O)[O-])cccc12 (racemic) [Example 40, N-[(1RS,2SR)-2-(4-fluorophenyl)-2-hydroxy-1-[4-(trifluoromethyl)benzyl]ethyl]-5-nitronaphthalene-1-carboxamide] |
| 205 to 214 | O=C(N[C@H](Cc1ccc(C(F)(F)F)cc1)[C@@H](O)c1ccc(F)cc1)C1CCCc2ccccc21 (mixture of isomers) [Example 41, N-[(1RS,2SR)-2-(4-fluorophenyl)-2-hydroxy-1-[4-(trifluoromethyl)benzyl]ethyl]-1,2,3,4-tetrahydronaphthalene-1-carboxamide] |
| 210 to 211 | O=C(N[C@H](Cc1ccc(C(F)(F)F)cc1)[C@@H](O)c1ccc(F)cc1)c1cccc2c1CCCCC2 (racemic) [Example 42, N-[(1RS,2SR)-2-(4-fluorophenyl)-2-hydroxy-1-[4-(trifluoromethyl)benzyl]ethyl]-6,7,8,9-tetrahydro-5H-benzo[a]cycloheptene-1-carboxamide] |
| 229 to 231 | O=C(N[C@H](Cc1ccc(C(F)(F)F)cc1)[C@@H](O)c1ccc(F)cc1)c1ccc(Br)c2ccccc12 (racemic) [Example 43, 4-bromo-N-[(1RS,2SR)-2-(4-fluorophenyl)-2-hydroxy-1-[4-(trifluoromethyl)benzyl]ethyl]naphthalene-1-carboxamide] |
| 195 to 196 | O=C(CC1CCCC1)N[C@H](Cc1ccc(C(F)(F)F)cc1)[C@@H](O)c1ccc(F)cc1 (racemic) [Example 44, 2-cyclopentyl-N-[(1RS,2SR)-2-(4-fluorophenyl)-2-hydroxy-1-[4-(trifluoromethyl)benzyl]ethyl]acetamide] |
| 169 to 170 | O=C(CCC1CCCC1)N[C@H](Cc1ccc(C(F)(F)F)cc1)[C@@H](O)c1ccc(F)cc1 (racemic) [Example 45, 3-cyclopentyl-N-[(1RS,2SR)-2-(4-fluorophenyl)-2-hydroxy-1-[4-(trifluoromethyl)benzyl]ethyl]propionamide] |
| 188 to 189 | O=C(N[C@H](Cc1ccc(C(F)(F)F)cc1)[C@@H](O)c1ccc(F)cc1)c1csc2ccccc12 (racemic) [Example 46, N-[(1RS,2SR)-2-(4-fluorophenyl)-2-hydroxy-1-[4-(trifluoromethyl)benzyl]ethyl]-1-benzothiophene-3-carboxamide] |
| 150 to 151 | O=C(CCCc1ccccc1)N[C@H](Cc1ccc(C(F)(F)F)cc1)[C@@H](O)c1ccc(F)cc1 (racemic) [Example 47, N-((1RS,2SR)-2-(4-fluorophenyl)-2-hydroxy-1-((4-(trifluoromethyl)phenyl)methyl)ethyl)-4-phenylbutyramide] |
| 144 to 145 | O=C(CCc1ccccc1)N[C@H](Cc1ccc(C(F)(F)F)cc1)[C@@H](O)c1ccc(F)cc1 (racemic) [Example 48, N-((1RS,2SR)-2-(4-fluorophenyl)-2-hydroxy-1-((4-(trifluoromethyl)phenyl)methyl)ethyl)-3-phenylpropanamide] |
| 182 to 183 | CC(=CC(=O)N[C@H](Cc1ccc(C(F)(F)F)cc1)[C@@H](O)c1ccc(F)cc1)C(F)(F)F (racemic) [Example 49, 4,4,4-trifluoro-N-[(1RS,2SR)-2-(4-fluorophenyl)-2-hydroxy-1-[4-(trifluoromethyl)benzyl]ethyl]-3-methyl-2-butenamide] |
| 187 to 188 | O=C(N[C@H](Cc1ccc(C(F)(F)F)cc1)[C@@H](O)c1ccc(F)cc1)c1cccc(Cl)c1Cl (racemic) [Example 50, 2,3-dichloro-N-((1RS,2SR)-2-(4-fluorophenyl)-2-hydroxy-1-((4-(trifluoromethyl)phenyl)methyl)ethyl)benzamide] |
| 206 to 207 | O=C(N[C@H](Cc1ccc(C(F)(F)F)cc1)[C@@H](O)c1ccc(F)cc1)c1cccc2cc([N+](=O)[O-])ccc12 (racemic) [Example 51, N-[(1RS,2SR)-2-(4-fluorophenyl)-2-hydroxy-1-[4-(trifluoromethyl)benzyl]ethyl]-6-nitronaphthalene-1-carboxamide] |
